Experimental data: patent US5602099A, “δ opioid receptor antagonists” (Aktiebolaget Astra, priority 1993, dated 1997)
Where two headings read alike, the source gives them in different places. Peptide text beside a SMILES is read from it.

Tests used:
[1] = target: T1, δ opioid receptors (Mus musculus, UniProt P32300); assay: Mouse vas deferens (MVD) bioassay, antagonism of electrically evoked contraction inhibition by δ-selective agonists; type: tissue-based; settings: MVD assay, means of 3-8 determinations
T1 construct: Bioassays Using Isolated Organ Preparations; from tissue; host or cells: mouse vas deferens (isolated organ)
T1 sequence (P32300 whole entry): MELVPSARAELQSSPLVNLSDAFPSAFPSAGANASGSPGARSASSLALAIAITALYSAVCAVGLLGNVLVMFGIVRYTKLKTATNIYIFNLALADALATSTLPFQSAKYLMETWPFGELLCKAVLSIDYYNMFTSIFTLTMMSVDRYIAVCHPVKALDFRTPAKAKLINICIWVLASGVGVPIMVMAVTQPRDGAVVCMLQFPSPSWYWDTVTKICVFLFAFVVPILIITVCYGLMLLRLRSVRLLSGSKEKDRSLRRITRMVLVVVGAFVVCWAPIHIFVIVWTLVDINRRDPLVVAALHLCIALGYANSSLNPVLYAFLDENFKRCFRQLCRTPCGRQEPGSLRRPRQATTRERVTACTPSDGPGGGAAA
Source text: a) Biosassys based on inhibition of electrically evoked contractions of the mouse vas deferens (MVD) and of the guinea pig ileum (GPI). In the GPI assay the opioid effect is primarily mediated by μ opioid receptors, whereas in the MVD assay the inhibition of the contractions is mostly due to interaction with δ opioid receptors.
The GPI and MVD bioassays were carded out as reported in P. W. Schiller et al., Biochem. Biophys. Res. Commun 85, 1332-1338 (1978) and J. Di Maio et al., J. Med. Chem. 25, 1432-1438 (1982). A log dose-response curve was determind with [Leu^5 ]enkephalin as standard for each ileum and vas preparation, and IC50 values of the compounds being tested were normalized according to A. A Waterfield et al., Eur. J. Pharmacol. 58, 11-18 (1979). […] These determinations were made with the MVD assay, using three different δ-selective agonists ([Leu^5 ] enkephalin, DPDPE and [D-Ala^2 ]deltorphin I].

[2] = target: T2, δ opioid receptor (Rattus norvegicus, UniProt P33533); assay: δ opioid receptor binding assay, displacement of δ-selective radioligand from rat brain membranes
T2 construct: Male Sprague-Dawley rats (300-350 g) from the Canadian Breeding Laboratories were decapitated and after removal of the cerebellum the brains were homogenized; from tissue; host or cells: rat brain (without cerebellum) membranes, male Sprague-Dawley
T2 sequence (P33533 whole entry): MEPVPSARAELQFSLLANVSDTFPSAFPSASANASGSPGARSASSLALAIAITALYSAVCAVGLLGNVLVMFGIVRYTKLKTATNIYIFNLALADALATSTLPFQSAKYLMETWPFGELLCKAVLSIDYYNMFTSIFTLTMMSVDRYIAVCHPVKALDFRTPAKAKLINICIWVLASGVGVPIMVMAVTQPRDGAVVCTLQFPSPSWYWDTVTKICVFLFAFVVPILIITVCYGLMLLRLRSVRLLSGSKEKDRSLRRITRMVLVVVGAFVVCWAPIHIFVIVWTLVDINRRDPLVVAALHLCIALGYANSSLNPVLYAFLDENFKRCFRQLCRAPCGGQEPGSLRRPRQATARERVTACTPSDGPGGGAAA
Source text: In the case of κ-ligands guinea pig brain homogenates were used, since the relative proportion of κ-binding sites is higher in guinea pig brain than in rat brain. The experimental procedure being used in our laboratory represents a modified version of the binding assay described by Pasternak et al. (Mol. Pharmacol. 11, 340-351, (1975)). Male Sprague-Dawley rats (300-350 g) from the Canadian Breeding Laboratories were decapitated and after removal of the cerebellum the brains were homogenized in 30 volumes of ice-cold standard buffer (50 mM Tris-HCl, pH 7.7). After centrifugation at 30,000×g for 30 min at 4° C. the membranes were reconstituted in the original volume of standard buffer and incubated for 30 min at 37° C. (to realease bound endogenous ligands). […] The incubation was terminated by filtration through Batman GF/B filters under vacuum at 4° C. Following two washings with 5 ml portions of ice-cold standard buffer the filters were transferred to scintillation vials and treated with 1 ml Protosol (New England Nuclear) for 30 min prior to the addition of 0.5 ml acetic acid and 10 ml Aquasol (New England Nuclear). After shaking for 30 min the vials were counted at an efficiency of 40-45%. All experiments were performed in duplicates and repeated at least three times. […] Values of half-maximal inhibition (IC50) of specific binding were obtained graphically from semilogarithmic plots. From the measured IC50-values, binding inhibition constants (Ki) were then calculated based on Cheng and Prusoff's equation (Biochem, Pharmacol. 22, 3099-3102 (1973)). Ratios of the Ki -values in the μ-, δ- and κ-representative binding assays are a measure of the receptor selectivety of the compound under investigation (e.g. Ki^μ /Ki^δ indicates the selectivity for δ-receptors versus μ-receptors).

[3] = Ke (nM) against DPDPE, δ agonist DPDPE
[4] = Ke (nM) against [D-Ala2]deltorphin I, δ agonist [D-Ala2]deltorphin I
[5] = Ke (nM) against [Leu5]Enkephalin, δ agonist [Leu5]enkephalin
[6] = δ agonist DPDPE, read-out: Ke (nM) against DPDPE
[7] = δ agonist [D-Ala2]deltorphin I, read-out: Ke (nM) against [D-Ala2]deltorphin I
[8] = δ agonist [Leu5]enkephalin, read-out: Ke (nM) against [Leu5]Enkephalin

SMILES	Kb [1, 3] [nM]	Kb [1, 4] [nM]	Kb [1, 5] [nM]	Ki^μ /Ki^δ ([2]; δ-selectivity ratio)	Kb [1, 6] [nM]	Kb [1, 7] [nM]	Kb [1, 8] [nM]	δ-selectivity, times less than the δ antagonists of this application ([2]; comparison with the δ antagonists described in this patent application)
CCN(CC)[C@@H](Cc1ccc(O)cc1)C(=O)N1Cc2ccccc2C[C@H]1C(=O)N[C@@H](Cc1ccccc1)C(=O)N[C@@H](Cc1ccccc1)C(=O)O [Tyr(N^α Et2)-TicPhePheOH, Tyr(N^α Et2)-Tic-Phe-Phe-OH]	0.893	2.3	3.39					
NC(=O)[C@H](CO)NC(=O)[C@@H]1CCCN1C(=O)[C@H](Cc1ccc(O)cc1)NC(=O)[C@H](Cc1ccc([N+](=O)[O-])cc1)NC(=O)[C@H](Cc1c[nH]c2ccccc12)NC(=O)[C@@H]1Cc2ccccc2CN1C(=O)[C@@H](N)Cc1ccc(O)cc1 [HTyrTicTrpPhe(pNO2)TyrProSerNH2, H-Tyr-Tic-Trp-Phe (pNO2) -Tyr-Pro-Ser-NH2] (HELM PEPTIDE1{Y.[Tic].W.[O=C([C@H](Cc1ccc([N+](=O)[O-])cc1)N[*:1])[*:2]].Y.P.S.[am]}$$$$V2.0)	2.48	3.91	3.68					
N[C@@H](Cc1ccc(O)cc1)C(=O)N1Cc2ccccc2C[C@H]1C(=O)N[C@@H](Cc1ccccc1)C(=O)N[C@@H](Cc1ccc([N+](=O)[O-])cc1)C(=O)O [HTyrTicPhePhe(pNO2)OH, H-Tyr-Tic-Phe-Phe(pNO2)-OH] (HELM PEPTIDE1{Y.[Tic].F.[O=C(O)[C@H](Cc1ccc([N+](=O)[O-])cc1)N[*:1]]}$$$$V2.0)	3.3	2.79	3.62					
N[C@@H](Cc1ccc(O)cc1)C(=O)N1Cc2ccccc2C[C@H]1C(=O)NC1(C(=O)N[C@@H](Cc2ccccc2)C(=O)O)CCc2ccccc2C1 (stereo partly drawn) [HTyrTicAtcPheOH, H-Tyr-Tic-Atc-Phe-OH] (HELM PEPTIDE1{Y.[Tic].[O=C(C1(N[*:1])CCc2ccccc2C1)[*:2]].F}$$$$V2.0)	1.85	0.927	1.63					
N[C@@H](Cc1ccc(O)cc1)C(=O)N1Cc2ccccc2C[C@H]1C(=O)N[C@@H](Cc1c[nH]c2ccccc12)C(=O)N[C@@H](Cc1ccccc1)C(=O)O [HTyrTicTrpPheOH, H-Tyr-Tic-Trp-Phe-OH] (HELM PEPTIDE1{Y.[Tic].W.F}$$$$V2.0)	2.56	1.65	2.37	5950				
O=C(O)[C@H](Cc1ccccc1)NC(=O)[C@H](Cc1ccccc1)NC(=O)[C@@H]1Cc2ccccc2CN1C(=O)[C@H](Cc1ccc(O)cc1)NCC1CC1 [Tyr(N^α Cpm)-TicPhePheOH, Tyr(N^α Cpm)-Tic-Phe-Phe-OH]	28.2	32.5	29.6					
CCCC[C@H](NC(=O)[C@H](CC(C)C)NC(=O)[C@H](Cc1ccccc1)NC(=O)[C@H](Cc1ccccc1)NC(=O)[C@@H]1Cc2ccccc2CN1C(=O)[C@@H](N)Cc1ccc(O)cc1)C(=O)N[C@@H](CC(=O)O)C(N)=O [HTyrTicPhePheLeuNleAspNH2, H-Tyr-Tic-Phe-Phe-Leu-Nle-Asp-NH2] (HELM PEPTIDE1{Y.[Tic].F.F.L.[Nle].D.[am]}$$$$V2.0)	10.4	10.8	21.4					
CN[C@@H](Cc1ccc(O)cc1)C(=O)N1Cc2ccccc2C[C@H]1CN[C@@H](CCc1ccccc1)C(=O)N[C@@H](Cc1ccccc1)C(=O)O [Tyr(NMe)-Tic.psi.[CH2NH]HfePheOH, Tyr(NMe)-Tic.PSI.[CH2 --NH]Hfe-Phe-OH]	0.902	0.418	0.78					
Cc1cc(O)cc(C)c1C[C@H](N)C(=O)N1Cc2ccccc2C[C@H]1C(=O)N[C@@H](Cc1ccccc1)C(=O)N[C@@H](Cc1ccccc1)C(N)=O [HDmtTicPhePheNH2, H-Dmt-Tic-Phe-Phe-NH2] (HELM PEPTIDE1{[Cc1cc(O)cc(C)c1C[C@H](N)C(=O)[*:2]].[Tic].F.F.[am]}$$$$V2.0)		0.26	0.221		0.209			
N[C@@H](Cc1ccc(O)cc1)C(=O)N1Cc2ccccc2C[C@H]1C(=O)N[C@@H](Cc1c[nH]c2ccccc12)C(=O)N[C@@H](Cc1ccc([N+](=O)[O-])cc1)C(=O)O [HTyrTicTrpPhe(pNO2)OH, H-Tyr-Tic-Trp-Phe(pNO2)-OH] (HELM PEPTIDE1{Y.[Tic].W.[O=C(O)[C@H](Cc1ccc([N+](=O)[O-])cc1)N[*:1]]}$$$$V2.0)	4.4	2.27	1.83					
Cc1cc(O)cc(C)c1C[C@H](N)C(=O)N1Cc2ccccc2C[C@H]1C(=O)N[C@@H](Cc1ccccc1)C(=O)N[C@@H](Cc1ccccc1)C(=O)O [HDmtTicPhePheOH, H-Dmt-Tic-Phe-Phe-OH] (HELM PEPTIDE1{[Cc1cc(O)cc(C)c1C[C@H](N)C(=O)[*:2]].[Tic].F.F}$$$$V2.0)					0.196	0.13	0.169	
N[C@@H](Cc1ccc(O)c(F)c1)C(=O)N1Cc2ccccc2C[C@H]1C(=O)N[C@@H](Cc1ccccc1)C(=O)N[C@@H](Cc1ccccc1)C(=O)O [HTyr(3-F)TicPhePheOH, H-Tyr(3-F)-Tic-Phe-Phe-OH] (HELM PEPTIDE1{[N[C@@H](Cc1ccc(O)c(F)c1)C(=O)[*:2]].[Tic].F.F}$$$$V2.0)	13	8.73	5.88					
N[C@@H](Cc1ccc(O)cc1)C(=O)N1Cc2ccccc2C[C@H]1CN[C@@H](CCc1ccccc1)C(=O)N[C@@H](Cc1ccccc1)C(=O)O [HTyrTic.psi.[CH2NH]HfePheOH, H-Tyr-Tic-.PSI.[CH2 --NH]Hfe-Phe-OH]	2.64	1.9	2.22					
NC(=O)[C@H](CO)NC(=O)[C@@H]1CCCN1C(=O)[C@H](Cc1ccc(O)cc1)NC(=O)[C@H](Cc1ccccc1)NC(=O)[C@H](Cc1c[nH]c2ccccc12)NC(=O)[C@@H]1Cc2ccccc2CN1C(=O)[C@@H](N)Cc1ccc(O)cc1 [HTyrTicTrpPheTyrProSerNH2, H-Tyr-Tic-Trp-Phe-Tyr-Pro-Ser-NH2] (HELM PEPTIDE1{Y.[Tic].W.F.Y.P.S.[am]}$$$$V2.0)	3.65		4.2					
N[C@@H](Cc1ccc(O)cc1)C(=O)N1Cc2ccccc2C[C@H]1C(=O)N[C@@H](Cc1ccccc1)C(=O)N[C@@H](Cc1ccccc1)C(=O)O [HTyrTicPhePheOH, H-Tyr-Tic-Phe-Phe-OH] (HELM PEPTIDE1{Y.[Tic].F.F}$$$$V2.0)					4.8	2.96	5.86	
C=CCN(CC=C)[C@@H](Cc1ccc(O)cc1)C(=O)NC(C)(C)C(=O)NC(C)(C)C(=O)N[C@@H](Cc1ccccc1)C(=O)N[C@@H](CC(C)C)C(=O)O [ICI 174864, N,N-diallyl-Tyr-Aib-Aib-Phe-Leu-OH, reference compound] (HELM PEPTIDE1{[C=CCN(CC=C)[C@@H](Cc1ccc(O)cc1)C(=O)[*:2]].[Aib].[Aib].F.L}$$$$V2.0)								10-300 times
N[C@@H](Cc1ccc(O)c(Br)c1)C(=O)N1Cc2ccccc2C[C@H]1C(=O)N[C@@H](Cc1ccccc1)C(=O)N[C@@H](Cc1ccccc1)C(=O)O [HTyr(3-Br)TicPhePheOH, H-Tyr(3-Br)-Tic-Phe-Phe-OH] (HELM PEPTIDE1{[N[C@@H](Cc1ccc(O)c(Br)c1)C(=O)[*:2]].[Tic].F.F}$$$$V2.0)	31.3	23.9	18.2					
N[C@@H](Cc1ccc(O)c(Cl)c1)C(=O)N1Cc2ccccc2C[C@H]1C(=O)N[C@@H](Cc1ccccc1)C(=O)N[C@@H](Cc1ccccc1)C(=O)O [HTyr(3-Cl)TicPhePheOH, H-Tyr(3-Cl)-Tic-Phe-Phe-OH] (HELM PEPTIDE1{[N[C@@H](Cc1ccc(O)c(Cl)c1)C(=O)[*:2]].[Tic].F.F}$$$$V2.0)	20.4	19.9	18					
N[C@@H](Cc1ccc(O)cc1)C(=O)N1Cc2ccccc2C[C@H]1C(=O)N[C@@H](Cc1c[nH]c2ccccc12)C(=O)O [HTyrTicTrpOH] (HELM PEPTIDE1{Y.[Tic].W}$$$$V2.0)	6.23	5.36	10.6					
